According to article PMC10888562 (International Journal of Molecular Sciences, 2024):
“And” between values parts separate entries of the source, which are not always exact repeats. Equal values may be shown once. Read-outs that look alike come from different tables or passages of the source.

What was measured:
SJ-G2 glioblastoma = tested on: SJ-G2 glioblastoma; parameters: method as in PMID 36142383, PMID 37173934, PMID 36296713; conditions: cited from earlier work
[1] = tested on: multiple human cell lines; parameters: method as in PMID 36142383, PMID 37173934, PMID 36296713; conditions: average over all cell lines; cited from earlier work
[2] = tested on: non-tumour-derived MCF10A breast line; parameters: method as in PMID 36142383, PMID 37173934, PMID 36296713; conditions: cited from earlier work
A431 skin = tested on: A431 skin; parameters: method as in PMID 36142383, PMID 37173934, PMID 36296713; conditions: cited from earlier work
BE2-C neuroblastoma = tested on: BE2-C neuroblastoma; parameters: method as in PMID 36142383, PMID 37173934, PMID 36296713; conditions: cited from earlier work
Du145 prostate = tested on: Du145 prostate; parameters: method as in PMID 36142383, PMID 37173934, PMID 36296713; conditions: cited from earlier work
HT29 colon cells [3] = tested on: HT29 colon cells; parameters: method as in PMID 36142383, PMID 37173934, PMID 36296713; conditions: cited from earlier work
MIA pancreas = tested on: MIA pancreas; parameters: method as in PMID 36142383, PMID 37173934, PMID 36296713; conditions: cited from earlier work
peritoneal carcinoma = tested on: peritoneal carcinoma; parameters: method as in PMID 20535526; conditions: BD-IX rats with peritoneal carcinoma; cited from earlier work
HT29 colon cells [4] = assay: TMRE mitochondrial membrane potential (MtMP) assay; assay type: cell-based, human; conditions: GI50 drug concentration (FCCP 20 μM)
Experimental: This was achieved by determining if the overproduction of ROS induced by these complexes impacts mitochondrial activity by altering MtMP. Briefly, there is evidence showing a strong correlation between increased levels of ROS and mitochondrial impairment. […] The MtMP changes recorded are measured as RFU. […] To investigate the MtMP changes in HT29 treated cells, a TMRE-MtMP Assay Kit (Abcam, Cambridge, MA, USA) was used, as previously described. In 96-well plates, 25,000 cells/mL of HT29 colon cells in DMEM were seeded. Cells were treated with a GI50 drug concentration for each complex. At 24, 48 or 72 h, cells were washed with PBS and stained with tetramethylrhodamine, ethyl ester (TMRE) (1 μM) and incubated for 30 min. TMRE was then removed, and cells were then re-washed with PBS (0.2% BSA), after which phenol red free media was added. The plates were directly scanned to measure fluorescence (expressed as RFU), using the Glo-Max®-Multimode microplate reader (Promega Corporation, Alexandra, VIC, Australia) at an excitation/emission of 549/575 nm. For the positive control, 20 μM carbonyl cyanide 4-(trifluoromethoxy) phenylhydrazone (FCCP)) was added to the cells and incubated for 10 min. The cells were washed with PBS (0.2% BSA) and stained with TMRE (1 μM) for 30 min; this was removed, and phenol red free media was added, and the final solution was scanned as mentioned above.

H460 lung = tested on: H460 lung; parameters: method as in PMID 36142383, PMID 37173934, PMID 36296713; conditions: cited from earlier work
MCF-7 breast = tested on: MCF-7 breast; parameters: method as in PMID 36142383, PMID 37173934, PMID 36296713; conditions: cited from earlier work
A2780 ovarian = tested on: A2780 ovarian; parameters: method as in PMID 36142383, PMID 37173934, PMID 36296713; conditions: cited from earlier work
[5] = tested on: cisplatin-resistant ADDP ovarian variant; parameters: method as in PMID 36142383, PMID 37173934, PMID 36296713; conditions: cited from earlier work
[6] = tested on: histone deacetylase (HDAC); assay: Fluorometric HDAC activity assay on extracts of treated HT29 cells; assay type: cell-based, human; conditions: HT29 colon cells treated 72 h at GI50 concentration; lower RFU = decline in HDAC activity; HT29 extract control 5154 ± 40
Experimental: All values are expressed as RFU.
To study the HDAC activity in HT29 treated cells, a Fluorometric HDAC Activity Assay Kit ab156064 (Abcam, Cambridge, MA, USA) was used and all sample preparations were made based on the manufacturer’s protocol. A total of 10^6 cells/mL of HT29 cells were seeded in DMEM with serum deprivation for 18 h to synchronise the cells. […] Cells were then washed with cold PBS and resuspended in lysis buffer (10 mM Tris HCl (pH 7.5), 10 mM NaCl, 15 mM MgCl2, 250 mM sucrose, 0.5% NP-40 and 0.1 mM EGTA) and lysed on ice for 20 min. Cells were centrifuged through 4 mL of sucrose cushion (30% sucrose, 10mM Tris HCl (pH 7.5), 10 mM NaCl and 3mM MgCl2) at 1300× g for 10 min at 4 °C. Supernatant was discarded and the pellet was washed and resuspended in extraction buffer (50 mM HEPES-KOH (pH 7.5), 420 mM NaCl, 0.5 mM EDTA 2Na, 0.1 mM EGTA and 10% glycerol) and then sonicated for 30 s. Nuclei were lysed for 30 min on ice and centrifuged at 20,000× g for 30 min. The supernatant was collected, and the samples were prepared for the fluorometric assay according to the manufacturer’s protocol (Histone Deacetylase (HDAC) Activity Assay Fluorometric Kit ab156064, Abcam). The changes in the relative fluorescence intensity (expressed as RFU) were recorded each minute over 60 min using the Glo-Max®-Multimode microplate reader (Promega Corporation, Alexandra, VIC, Australia) at an excitation/emission of 355/460 nm.

HT29 colon = tested on: HT29 colon; parameters: method as in PMID 36142383, PMID 37173934, PMID 36296713; conditions: cited from earlier work
U87 glioblastoma = tested on: U87 glioblastoma; parameters: method as in PMID 36142383, PMID 37173934, PMID 36296713; conditions: cited from earlier work
prostate tumour = tested on: prostate tumour; parameters: method as in PMID 18997969; conditions: mice with prostate tumour; cited from earlier work

Cc1c(C)c2cccnc2c2ncccc12.N[C@H]1CCCC[C@@H]1N.[Pt] [56MESS, [Pt^II(5,6-Me2phen)(SS-DACH)]^2+]
GI50 (SJ-G2 glioblastoma): 0.066 ± 0.022 µM | GI50 [1]: 0.036 ± 0.01 µM | GI50 [2]: 0.016 ± 0.001 µM | GI50 (A431 skin): 0.029 ± 0.001 µM | GI50 (BE2-C neuroblastoma): 0.059 ± 0.004 µM | GI50 (Du145 prostate): 0.0046 ± 0.0004 µM | ROS Production (HT29 colon cells [3]; 24 h): 240 ± 5 RFU | ROS Production (HT29 colon cells [3]; 48 h): 218 ± 3 RFU | ROS Production (HT29 colon cells [3]; 72 h): 255 ± 4 RFU | GI50 (MIA pancreas): 0.013 ± 0.002 µM | nephrotoxicity (peritoneal carcinoma): caused nephrotoxicity | tumour suppression (peritoneal carcinoma): ineffective in suppressing tumour | MtMP Changes (HT29 colon cells [4]; 24 h, control 542 ± 4): 277 ± 5 RFU | MtMP Changes (HT29 colon cells [4]; 48 h, control 507 ± 11): 211 ± 7 RFU | MtMP Changes (HT29 colon cells [4]; 72 h, control 449 ± 10): 151 ± 7 RFU | GI50 (H460 lung): 0.021 ± 0.002 µM | GI50 (MCF-7 breast): 0.093 ± 0.044 µM | GI50 (A2780 ovarian): 0.076 ± 0.057 µM | GI50 [5]: 0.013 ± 0.002 µM | HDAC Inhibition at 72 h [6]: 1847 RFU and 1847 ± 42 RFU | GI50 (HT29 colon): 0.01 ± 0.0016 µM | GI50 (U87 glioblastoma): 0.035 ± 0.0064 µM

N[C@H]1CCCC[C@@H]1N.[Pt+2].c1cnc2c(c1)ccc1cccnc12 [PHENSS, [Pt^II(phen)(SS-DACH)]^2+]
GI50 (SJ-G2 glioblastoma): 0.33 ± 0.066 µM | rate of tumour regression (prostate tumour): comparable to cisplatin | toxicity (prostate tumour): no toxicity was detected | GI50 [1]: 0.434 ± 0.11 µM | GI50 [2]: 0.3 ± 0.058 µM | GI50 (A431 skin): 0.48 ± 0.17 µM | GI50 (BE2-C neuroblastoma): 0.38 ± 0.046 µM | GI50 (Du145 prostate): 0.1 ± 0.038 µM | ROS Production (HT29 colon cells [3]; 24 h): 174 ± 2 RFU | ROS Production (HT29 colon cells [3]; 48 h): 172 ± 9 RFU | ROS Production (HT29 colon cells [3]; 72 h): 176 ± 7 RFU | GI50 (MIA pancreas): 0.2 ± 0.057 µM | MtMP Changes (HT29 colon cells [4]; 24 h, control 542 ± 4): 321 ± 7 RFU | MtMP Changes (HT29 colon cells [4]; 48 h, control 507 ± 11): 305 ± 5 RFU | MtMP Changes (HT29 colon cells [4]; 72 h, control 449 ± 10): 257 ± 6 RFU | GI50 (H460 lung): 0.36 ± 0.035 µM | GI50 (MCF-7 breast): 1.5 ± 0.5 µM | GI50 (A2780 ovarian): 0.23 ± 0.03 µM | GI50 [5]: 0.19 ± 0.047 µM | HDAC Inhibition at 72 h [6]: 3733 ± 37 RFU | GI50 (HT29 colon): 0.16 ± 0.045 µM | GI50 (U87 glioblastoma): 0.98 ± 0.27 µM
